In ChEMBL document CHEMBL3244021, “Structure and biological activity of (-)-[3H]dihydroalprenolol, a radioligand for studies of beta-adrenergic receptors” (J Med Chem, 1977):

Experiments:
[1] = Antagonist activity at beta adrenergic receptor in frog erythrocyte membrane assessed as inhibition of (-)-isoproterenol-stimulated adenylate cyclase activity measured as [32P]-cAMP level; format: cell membranes, Anura
[2] = Displacement of (-)-[3H]dihydroalprenolol from beta adrenergic receptor in frog erythrocyte membrane after 10 mins by liquid scintillation counting analysis; format: cell membranes, Anura
[3] = Stability of the compound; format: physicochemical
[4] = Binding affinity to beta adrenergic receptor in frog erythrocyte membrane after 10 mins by liquid scintillation counting analysis; format: cell membranes, Anura

C=CCc1ccccc1OCC(O)CNC(C)C (configuration not stated)
Kd [1]: 4 nM | Kd [2]: 2.5 nM

CCCc1ccccc1OCC(O)CNC(C)C (single isomer, unassigned; (-))
Kd [1]: 4 nM | Kd [2]: 2.5 nM

[3H]C([3H])([3H])C([3H])([3H])Cc1ccccc1OCC(O)CNC(C)C (single isomer, unassigned; (-))
Kd [1]: 4 nM | Stability [3]: Stable | Kd [4]: 3 nM
